Assay: Dissolution test (USP apparatus Type II paddles) of capsules containing the gel liquid, HPLC analysis
Type: physicochemical
Details: capsule
Protocol: An Agilent 1260 Infinity HPLC system consists of a G1330B thermostat, a G1329B auto-injector, a G13150 diode array detector, a G1322A degasser and a high-pressure binary pump. Signal/Noise ratio of the chromatogram generated from this HPLC was used for qualitative and quantitative analyses in this study. The column used was an Angilent Poroshell 120 EC-C18 ([…], 2.7 am). The HPLC was run for 10 minutes at a column temperature of 35° C. under a flow rate of 0.3 ml/min with injection volume being 5 μl. The detection spectrum was set at 426 nm using an elusion medium comprising acetonitrile and 0.1% of aqueous formic acid in a volume ratio of 1:2.
2.0 g of NaCl and 7 ml of HCl were dissolved in 1 L of ultrapure water. The pH was adjusted to 1.2, by using 2M NaOH. 13.121 g of Na2HPO4 were dissolved in 1 L of ultrapure water. The pH was adjusted to 6.8.
A Vankel Varain VK 70000 Dissolution System consisting of VK7000 dissolution system, VK 750D heating circulator, system monitor, 6 Vankel vessels and apparatus Type II paddles, was used in the preparation of a dissolution sample from capsules containing the gel liquid.
The dissolution test was performed in compliance with United States Pharmacopoeia using apparatus Type II paddles. […] 6 capsules were added into 6 vessels respectively. […] 2 μl of the filtrate was injected into the HPLC system for analysis.
Further, 250 ml of pH 6.8 solution was added to the same vessel at 45 minutes and the pH was adjusted to 6.8 using 2M NaOH within 5 minutes. 1-2 ml of the dissolution sample was then collected after 60 minutes, 75 minutes and 120 minutes followed by filtering through a 0.45 μm membrane immediately. 2 μl of the filtrate was injected into the HPLC system for analysis.

SMILES | Weight dissolved (pH 1.2, 15 min) [µg] | Weight dissolved (pH 1.2, 30 min) [µg] | Weight dissolved (pH 6.8, 45 min) [µg] | Weight dissolved (pH 6.8, 60 min) [µg] | Weight dissolved (pH 6.8, 75 min) [µg] | Weight dissolved (pH 6.8, 120 min) [µg] | Weight dissolved (pH 1.2, 10 min) [µg]
COc1cc(/C=C/C(=O)CC(=O)/C=C/c2ccc(O)cc2)ccc1O [DMC, demthoxycurcumin] | 195 ± 22 | 831 ± 87 | 745 ± 48 | 747 ± 45 | 739 ± 68 | 763 ± 69 | 
COc1cc(/C=C/C(=O)CC(=O)/C=C/c2ccc(O)c(OC)c2)ccc1O [Curcumin, curcumin] | 4250 ± 686 | 18908 ± 1819 | 24155 ± 1397 | 23746 ± 1347 | 23497 ± 1859 | 23937 ± 1826 | 590 ± 78
